According to ChEMBL document CHEMBL1139055, “Structure-activity relationships of pentacycloundecylamines at the N-methyl-d-aspartate receptor” (Bioorg Med Chem, 2007):
The source made the active and inactive calls. The calls are words filed in the database; no cut-off is given here.

Key:
[1] = Antagonist activity at NMDA receptor in ICR mouse synaptoneurosome assessed as inhibition of NMDA/Gly-mediated 45-calcium influx; format: functional
[2] = species on record: Mus musculus; assay: Displacement of [3H]MK-801 from NMDA receptor in ICR mouse synaptoneurosome at 100 uM
[3] = species on record: Mus musculus; assay: Displacement of [3H]TCP from NMDA receptor in ICR mouse synaptoneurosome at 100 uM
[4] = species on record: Mus musculus; assay: Displacement of [3H]glutamate from NMDA receptor in ICR mouse synaptoneurosome
[5] = Antagonist activity at NMDA receptor in ICR mouse synaptoneurosome assessed as inhibition of NMDA/Gly-mediated 45-calcium influx at 2 uM relative to control; format: functional

| SMILES | IC50 [1] [µM] | Activity [2] | Activity [3] | Activity [4] | Inhibition [5] [%] |
| --- | --- | --- | --- | --- | --- |
| O=[N+]([O-])c1ccccc1CNC12OC3C4C5CC(C6C5C3C61)C42 (configuration not stated) | 37.6 | – | – | – | – |
| C[C@]12N[C@H](Cc3ccccc31)c1ccccc12 [DIZOCILPINE] | 1.23 | 73% | 65% | – | – |
| NC1C2C3CC4C1C1C2CC3C41 (configuration not stated) | 4.06 | inactive | inactive | inactive | – |
| CC12CC3CC(C)(C1)CC(N)(C3)C2 [MEMANTINE] | 3.05 | 90% | 67% | – | – |
| O=[N+]([O-])c1cccc(CNC23OC4C5C6CC(C7C6C4C72)C53)c1 (configuration not stated) | 32.8 | – | – | – | – |
| c1ccc(CNC23OC4C5C6CC(C7C6C4C72)C53)cc1 (configuration not stated) | 2.98 | inactive | 20% | inactive | 108.9 |
| COc1cccc(CNC23OC4C5C6CC(C7C6C4C72)C53)c1 (configuration not stated) | 20.7 | – | – | – | – |
| c1ccc(CCNC23OC4C5C6CC(C7C6C4C72)C53)cc1 (configuration not stated) | 23.5 | inactive | 44% | – | – |
| OC12CC3C4C5CC6C4C3C1C(NCc1ccccc1)C6C52 (configuration not stated) | 36.2 | – | – | – | – |
